From the Kinase Knowledgebase extract (Sharma et al. 2016)

The compounds below were run against PIK3CG (human) (UniProt P48736) (assay: Assessment of PIK3CG Kinase Activity).
PIK3CG (human), sequence (P48736 whole entry, looked up): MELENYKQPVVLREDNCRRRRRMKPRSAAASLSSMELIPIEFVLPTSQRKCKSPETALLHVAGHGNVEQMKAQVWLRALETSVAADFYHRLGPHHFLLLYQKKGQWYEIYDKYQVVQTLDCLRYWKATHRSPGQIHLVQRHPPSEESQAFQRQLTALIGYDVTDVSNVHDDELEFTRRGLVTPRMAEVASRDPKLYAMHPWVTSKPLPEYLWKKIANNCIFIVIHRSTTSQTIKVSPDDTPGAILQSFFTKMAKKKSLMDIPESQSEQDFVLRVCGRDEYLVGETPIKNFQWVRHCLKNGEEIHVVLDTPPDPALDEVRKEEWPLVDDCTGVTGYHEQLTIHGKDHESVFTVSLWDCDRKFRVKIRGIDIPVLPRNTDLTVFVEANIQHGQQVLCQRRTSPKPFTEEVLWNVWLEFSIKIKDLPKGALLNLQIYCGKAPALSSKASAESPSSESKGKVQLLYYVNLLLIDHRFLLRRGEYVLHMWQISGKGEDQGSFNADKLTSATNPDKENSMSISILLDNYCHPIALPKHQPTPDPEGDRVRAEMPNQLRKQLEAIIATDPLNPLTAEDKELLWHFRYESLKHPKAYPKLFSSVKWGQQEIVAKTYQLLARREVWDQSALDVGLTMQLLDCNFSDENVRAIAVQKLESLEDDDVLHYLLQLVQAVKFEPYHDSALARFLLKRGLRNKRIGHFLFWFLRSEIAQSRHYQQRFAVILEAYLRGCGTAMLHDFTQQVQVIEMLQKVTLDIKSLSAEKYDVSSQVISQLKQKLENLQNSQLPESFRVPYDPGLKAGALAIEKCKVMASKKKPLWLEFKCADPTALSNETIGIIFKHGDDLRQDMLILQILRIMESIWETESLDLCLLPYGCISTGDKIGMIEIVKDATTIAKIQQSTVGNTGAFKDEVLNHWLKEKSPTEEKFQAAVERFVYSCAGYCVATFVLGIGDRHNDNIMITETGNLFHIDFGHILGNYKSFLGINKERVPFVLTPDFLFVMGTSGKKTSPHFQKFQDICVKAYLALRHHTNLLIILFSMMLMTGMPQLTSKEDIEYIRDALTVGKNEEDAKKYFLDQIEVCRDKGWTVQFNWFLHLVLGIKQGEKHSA

IC50, < 800 nM:
CC(C)(C)OC(=O)Nc1cccc(CNC(=O)Nc2nc3c(s2)-c2nc(-c4ccccc4Cl)ncc2CC3)c1
CC(C)(C)NC(=O)CCNC(=O)Nc1nc2c(s1)-c1nc(-c3ccccc3Cl)ncc1CC2
O=C(NCc1cccc(N2CCNC2=O)c1)Nc1nc2c(s1)-c1nc(-c3ccccc3Cl)ncc1CC2
O=C(NCc1cccc(N2CCOC2=O)c1)Nc1nc2c(s1)-c1nc(-c3ccccc3Cl)ncc1CC2
CN(C)C(=O)c1cccc(CNC(=O)Nc2nc3c(s2)-c2nc(-c4ccccc4Cl)ncc2CC3)c1
CC(C)(C)OC(=O)NCc1cccc(CNC(=O)Nc2nc3c(s2)-c2nc(-c4ccccc4Cl)ncc2CC3)c1
CC(NC(=O)Nc1nc2c(s1)-c1nc(-c3ccccc3Cl)ncc1CC2)c1cccc(NC(=O)OC(C)(C)C)c1 (stereo not given)
O=C(NCc1cccs1)Nc1nc2c(s1)-c1nc(-c3ccccc3Cl)ncc1CC2
O=C1Cc2ccccc2CN1CC1CCN(C(=O)Nc2nc3c(s2)-c2nc(-c4ccccc4Cl)ncc2CC3)C1 (stereo not given)
CN(C)CCN(C)C(=O)Nc1nc2c(s1)-c1nc(-c3ccccc3Cl)ncc1CC2
O=C(NC[C@@H]1CCCN1)Nc1nc2c(s1)-c1nc(-c3ccccc3Cl)ncc1CC2
CC(C)NC(=O)c1cccc(CNC(=O)Nc2nc3c(s2)-c2nc(-c4ccccc4Cl)ncc2CC3)c1
CC(C)CN(C)C(=O)N[C@H]1CCN(C(=O)Nc2nc3c(s2)-c2nc(-c4ccccc4Cl)ncc2CC3)C1
CC(C)(C)OC(=O)NCC1CCCN1C(=O)Nc1nc2c(s1)-c1nc(-c3ccccc3Cl)ncc1CC2 (stereo not given)
O=C(NCCc1ccc2c(c1)OCO2)Nc1nc2c(s1)-c1nc(-c3ccccc3Cl)ncc1CC2
O=C(NCc1cccc(N2CCCCC2)c1)Nc1nc2c(s1)-c1nc(-c3ccccc3Cl)ncc1CC2
CC(C)(C)OC(=O)CCNC(=O)Nc1nc2c(s1)-c1nc(C(C)(C)C)ncc1CC2
O=C(NCC1CCCCC1)Nc1nc2c(s1)-c1nc(-c3ccccc3Cl)ncc1CC2
CS(=O)(=O)N[C@@H]1CCN(C(=O)Nc2nc3c(s2)-c2nc(-c4ccccc4Cl)ncc2CC3)C1
O=C(NCCc1cccnc1)Nc1nc2c(s1)-c1nc(-c3ccccc3Cl)ncc1CC2
O=C(NCCc1ccncc1)Nc1nc2c(s1)-c1nc(-c3ccccc3Cl)ncc1CC2
CC(C)CN(C)C(=O)c1cccc(CNC(=O)Nc2nc3c(s2)-c2nc(-c4ccccc4Cl)ncc2CC3)c1
O=C(Nc1nc2c(s1)-c1nc(-c3ccccc3Cl)ncc1CC2)N1CC[C@@H](NC(=O)N2CCCCC2)C1
O=C(Nc1nc2c(s1)-c1nc(-c3ccccc3Cl)ncc1CC2)N1CCCC(c2nc3ccccc3[nH]2)C1 (stereo not given)
O=C(N[C@H]1CCN(C(=O)Nc2nc3c(s2)-c2nc(-c4ccccc4Cl)ncc2CC3)C1)C(F)F
O=C(Nc1ccc(N2CCNCC2)cc1)Nc1nc2c(s1)-c1nc(-c3ccccc3Cl)ncc1CC2
O=C(Nc1nc2c(s1)-c1nc(-c3ccccc3Cl)ncc1CC2)N1CCC(n2cnc3ccccc32)CC1
O=C(NCc1cc(C2CC2)n[nH]1)Nc1nc2c(s1)-c1nc(-c3ccccc3C(F)(F)F)ncc1CC2
O=C(O)[C@H]1[C@H](c2ccccc2)CCN1C(=O)Nc1nc2c(s1)-c1nc(-c3ccccc3Cl)ncc1CC2
CC(C)(C)OC(=O)NC1CCN(C(=O)Nc2nc3c(s2)-c2nc(-c4ccccc4Cl)ncc2CC3)C1 (stereo not given)
CCN1CCC[C@H]1CNC(=O)Nc1nc2c(s1)-c1nc(-c3ccccc3Cl)ncc1CC2
CC(C)(C)OC(=O)N1CCN(c2ccc(NC(=O)Nc3nc4c(s3)-c3nc(-c5ccccc5Cl)ncc3CC4)cc2)CC1
CCOCCNC(=O)Nc1nc2c(s1)-c1nc(-c3ccccc3Cl)ncc1CC2
CN(C)S(=O)(=O)Nc1cccc(CNC(=O)Nc2nc3c(s2)-c2nc(-c4ccccc4Cl)ncc2CC3)c1
CC(C)OCCNC(=O)Nc1nc2c(s1)-c1nc(-c3ccccc3Cl)ncc1CC2
CCNC(=O)CCNC(=O)Nc1nc2c(s1)-c1nc(-c3ccccc3Cl)ncc1CC2
O=C1CCC(NC(=O)Nc2nc3c(s2)-c2nc(-c4ccccc4Cl)ncc2CC3)C(c2ccccc2)N1 (stereo not given)
CC(C)CN(C)C(=O)CCNC(=O)Nc1nc2c(s1)-c1nc(-c3ccccc3Cl)ncc1CC2
O=C(N[C@H]1CCN(C(=O)Nc2nc3c(s2)-c2nc(-c4ccccc4Cl)ncc2CC3)C1)C1CC1
COc1cccc([C@H](C)NC(=O)Nc2nc3c(s2)-c2nc(-c4ccccc4Cl)ncc2CC3)c1
CC(C)(C)OC(=O)N1CCCCC1CNC(=O)Nc1nc2c(s1)-c1nc(-c3ccccc3Cl)ncc1CC2 (stereo not given)
Cn1cc(CNC(=O)Nc2nc3c(s2)-c2nc(-c4ccccc4F)ncc2CC3)cn1
CN(C)CC(=O)N[C@H]1CCN(C(=O)Nc2nc3c(s2)-c2nc(-c4ccccc4Cl)ncc2CC3)C1
CN(C)Cc1cccc(CNC(=O)Nc2nc3c(s2)-c2nc(-c4ccccc4Cl)ncc2CC3)c1
CCc1csc(CCNC(=O)Nc2nc3c(s2)-c2nc(-c4ccccc4Br)ncc2CC3)n1
COCCNC(=O)Nc1nc2c(s1)-c1nc(-c3ccccc3Cl)ncc1CC2
CCc1csc(CCNC(=O)Nc2nc3c(s2)-c2nc(-c4ccccc4C(F)(F)F)ncc2CC3)n1
O=C(NCCC(=O)N1CCOCC1)Nc1nc2c(s1)-c1nc(-c3ccccc3Cl)ncc1CC2
O=C(NCc1ccc2cc[nH]c2c1)Nc1nc2c(s1)-c1nc(-c3ccccc3Cl)ncc1CC2
O=C(Nc1nc2c(s1)-c1nc(-c3ccccc3Cl)ncc1CC2)NC1CCC(N2CCNC2=O)CC1 (stereo not given)
CC(=O)N[C@H]1CCN(C(=O)Nc2nc3c(s2)-c2nc(-c4ccccc4Cl)ncc2CC3)C1
O=C(NCc1ccn[nH]1)Nc1nc2c(s1)-c1nc(-c3ccccc3Cl)ncc1CC2
O=C(NCc1cccc(N2CCNC2=O)c1)Nc1nc2c(s1)-c1nc(-c3ccccc3Br)ncc1CC2
CCN1CCC2(CCN(C(=O)Nc3nc4c(s3)-c3nc(-c5ccccc5Cl)ncc3CC4)C2)C1 (stereo not given)
O=C(NCCN1CCNC1=O)Nc1nc2c(s1)-c1nc(-c3ccccc3Cl)ncc1CC2
COCCCNC(=O)Nc1nc2c(s1)-c1nc(-c3ccccc3Cl)ncc1CC2
CC1CC(c2ccc(O)cc2)CN1C(=O)Nc1nc2c(s1)-c1nc(-c3ccccc3Cl)ncc1CC2 (stereo not given)
CCc1nnc(CCNC(=O)Nc2nc3c(s2)-c2nc(-c4ccccc4C(F)(F)F)ncc2CC3)o1
CCc1csc(CCNC(=O)Nc2nc3c(s2)-c2nc(-c4ccccc4F)ncc2CC3)n1
CC(C)CNC(=O)CCNC(=O)Nc1nc2c(s1)-c1nc(-c3ccccc3Cl)ncc1CC2
O=C(NCc1cccc(NC(=O)C2CC2)c1)Nc1nc2c(s1)-c1nc(-c3ccccc3Cl)ncc1CC2
O=C(NCc1ccccc1)Nc1nc2c(s1)-c1nc(-c3ccccc3Cl)ncc1CC2
CC(C)CCNC(=O)Nc1nc2c(s1)-c1nc(-c3ccccc3Cl)ncc1CC2
CC(C)c1noc(CCNC(=O)Nc2nc3c(s2)-c2nc(-c4ccccc4Br)ncc2CC3)n1
Cn1nc(CNC(=O)Nc2nc3c(s2)-c2nc(-c4ccccc4Cl)ncc2CC3)cc1O
CC(C)(C)OC(=O)CCNC(=O)Nc1nc2c(s1)-c1nc(-c3ccccc3Br)ncc1CC2
O=C(Nc1nc2c(s1)-c1nc(-c3ccccc3Cl)ncc1CC2)N1CCC(CN2CCc3ccccc3C2=O)C1 (stereo not given)
NC(=O)c1cccc(CNC(=O)Nc2nc3c(s2)-c2nc(-c4ccccc4Cl)ncc2CC3)c1
Cn1cc(CNC(=O)Nc2nc3c(s2)-c2nc(-c4ccccc4Br)ncc2CC3)cn1
Cn1ccnc1CNC(=O)Nc1nc2c(s1)-c1nc(-c3ccccc3Cl)ncc1CC2
O=C(NCc1cccc(N2CCOCC2)c1)Nc1nc2c(s1)-c1nc(-c3ccccc3Cl)ncc1CC2
O=C(NCc1ccc(CN2CCNC2=O)cc1)Nc1nc2c(s1)-c1nc(-c3ccccc3Cl)ncc1CC2
O=C(NCCc1ccc2c(c1)OCCO2)Nc1nc2c(s1)-c1nc(-c3ccccc3Cl)ncc1CC2
CC(C)N(C)C(=O)c1cccc(CNC(=O)Nc2nc3c(s2)-c2nc(-c4ccccc4Cl)ncc2CC3)c1
O=C(CCNC(=O)Nc1nc2c(s1)-c1nc(-c3ccccc3Cl)ncc1CC2)NCC1CC1
CN(C)CCCNC(=O)Nc1nc2c(s1)-c1nc(-c3ccccc3Cl)ncc1CC2
CCn1cnc(CCNC(=O)Nc2nc3c(s2)-c2nc(-c4ccccc4Br)ncc2CC3)c1
CN(C)C(=O)N[C@@H]1CCN(C(=O)Nc2nc3c(s2)-c2nc(-c4ccccc4Cl)ncc2CC3)C1
CN1CCN(Cc2cccc(NC(=O)Nc3nc4c(s3)-c3nc(-c5ccccc5Cl)ncc3CC4)c2)CC1
CC(C)CNC(=O)N[C@H]1CCN(C(=O)Nc2nc3c(s2)-c2nc(-c4ccccc4Cl)ncc2CC3)C1
